Experimental data as given in the NIST ThermoML archive (doi:10.1021/je301164d).
Numbers after ± are expanded uncertainties.

Settings: Fluid (supercritical or subcritical phases)

SMILES: CC(F)(F)CC(F)(F)F [1,1,1,3,3-pentafluorobutane]
- speed of sound (250 K, 1105.2 kPa): 921.65 ± 0.41 m/s
- speed of sound (250 K, 2105.8 kPa): 926.73 ± 0.41 m/s
- speed of sound (250 K, 3106.3 kPa): 931.74 ± 0.41 m/s
- speed of sound (250 K, 4106.9 kPa): 936.7 ± 0.41 m/s
- speed of sound (250 K, 5107.4 kPa): 941.59 ± 0.41 m/s
- speed of sound (250 K, 6108.3 kPa): 946.43 ± 0.42 m/s
- speed of sound (250 K, 7108.9 kPa): 951.22 ± 0.42 m/s
- speed of sound (250 K, 8108.1 kPa): 955.95 ± 0.42 m/s
- speed of sound (250 K, 9108.8 kPa): 960.64 ± 0.42 m/s
- speed of sound (250 K, 10110 kPa): 965.28 ± 0.43 m/s
- speed of sound (250 K, 12611 kPa): 976.67 ± 0.43 m/s
- speed of sound (250 K, 15113 kPa): 987.78 ± 0.43 m/s
- speed of sound (250 K, 17614 kPa): 998.62 ± 0.44 m/s
- speed of sound (250 K, 20116 kPa): 1009.2 ± 0.44 m/s
- speed of sound (250 K, 25120 kPa): 1029.8 ± 0.45 m/s
- speed of sound (250 K, 30123 kPa): 1049.5 ± 0.46 m/s
- speed of sound (250 K, 35127 kPa): 1068.4 ± 0.47 m/s
- speed of sound (250 K, 40130 kPa): 1086.7 ± 0.48 m/s
- speed of sound (250 K, 45133 kPa): 1104.4 ± 0.49 m/s
- speed of sound (250 K, 50137 kPa): 1121.5 ± 0.5 m/s
- speed of sound (260 K, 1104.3 kPa): 881.57 ± 0.39 m/s
- speed of sound (260 K, 2104.8 kPa): 886.96 ± 0.39 m/s
- speed of sound (260 K, 3105.3 kPa): 892.27 ± 0.4 m/s
- speed of sound (260 K, 4105.9 kPa): 897.52 ± 0.4 m/s
- speed of sound (260 K, 5106.3 kPa): 902.7 ± 0.4 m/s
- speed of sound (260 K, 6107.9 kPa): 907.82 ± 0.4 m/s
- speed of sound (260 K, 7109.2 kPa): 912.89 ± 0.4 m/s
- speed of sound (260 K, 8109.9 kPa): 917.88 ± 0.41 m/s
- speed of sound (260 K, 9110.7 kPa): 922.82 ± 0.41 m/s
- speed of sound (260 K, 10112 kPa): 927.71 ± 0.41 m/s
- speed of sound (260 K, 12613 kPa): 939.68 ± 0.42 m/s
- speed of sound (260 K, 15115 kPa): 951.34 ± 0.42 m/s
- speed of sound (260 K, 17617 kPa): 962.7 ± 0.43 m/s
- speed of sound (260 K, 20118 kPa): 973.79 ± 0.43 m/s
- speed of sound (260 K, 25122 kPa): 995.21 ± 0.44 m/s
- speed of sound (260 K, 30126 kPa): 1015.7 ± 0.45 m/s
- speed of sound (260 K, 35129 kPa): 1035.4 ± 0.46 m/s
- speed of sound (260 K, 40133 kPa): 1054.3 ± 0.47 m/s
- speed of sound (260 K, 45136 kPa): 1072.6 ± 0.48 m/s
- speed of sound (260 K, 50140 kPa): 1090.3 ± 0.48 m/s
- speed of sound (260 K, 60146 kPa): 1124.1 ± 0.5 m/s
- speed of sound (260 K, 70153 kPa): 1155.9 ± 0.52 m/s
- speed of sound (260 K, 80160 kPa): 1186.1 ± 0.53 m/s
- speed of sound (260 K, 90167 kPa): 1214.9 ± 0.55 m/s
- speed of sound (260 K, 100174 kPa): 1242.4 ± 0.56 m/s
- speed of sound (280 K, 1104.4 kPa): 803.31 ± 0.36 m/s
- speed of sound (280 K, 2104.9 kPa): 809.41 ± 0.36 m/s
- speed of sound (280 K, 3105.4 kPa): 815.42 ± 0.36 m/s
- speed of sound (280 K, 4106 kPa): 821.34 ± 0.37 m/s
- speed of sound (280 K, 5106.6 kPa): 827.16 ± 0.37 m/s
- speed of sound (280 K, 6107.8 kPa): 832.89 ± 0.37 m/s
- speed of sound (280 K, 7108.5 kPa): 838.55 ± 0.38 m/s
- speed of sound (280 K, 8109.3 kPa): 844.12 ± 0.38 m/s
- speed of sound (280 K, 9110.2 kPa): 849.62 ± 0.38 m/s
- speed of sound (280 K, 10111 kPa): 855.04 ± 0.38 m/s
- speed of sound (280 K, 12613 kPa): 868.29 ± 0.39 m/s
- speed of sound (280 K, 15114 kPa): 881.13 ± 0.39 m/s
- speed of sound (280 K, 17616 kPa): 893.6 ± 0.4 m/s
- speed of sound (280 K, 20118 kPa): 905.71 ± 0.4 m/s
- speed of sound (280 K, 25121 kPa): 929 ± 0.41 m/s
- speed of sound (280 K, 30124 kPa): 951.17 ± 0.42 m/s
- speed of sound (280 K, 35128 kPa): 972.34 ± 0.43 m/s
- speed of sound (280 K, 40131 kPa): 992.62 ± 0.44 m/s
- speed of sound (280 K, 45135 kPa): 1012.1 ± 0.45 m/s
- speed of sound (280 K, 50138 kPa): 1030.9 ± 0.46 m/s
- speed of sound (280 K, 60145 kPa): 1066.6 ± 0.48 m/s
- speed of sound (280 K, 70152 kPa): 1100.2 ± 0.49 m/s
- speed of sound (280 K, 80159 kPa): 1131.9 ± 0.51 m/s
- speed of sound (280 K, 90166 kPa): 1162 ± 0.52 m/s
- speed of sound (280 K, 100172 kPa): 1190.6 ± 0.54 m/s
- speed of sound (300 K, 1104.5 kPa): 727.1 ± 0.33 m/s
- speed of sound (300 K, 2105 kPa): 734.06 ± 0.33 m/s
- speed of sound (300 K, 3105.5 kPa): 740.9 ± 0.34 m/s
- speed of sound (300 K, 4106 kPa): 747.61 ± 0.34 m/s
- speed of sound (300 K, 5107 kPa): 754.19 ± 0.34 m/s
- speed of sound (300 K, 6107.6 kPa): 760.65 ± 0.34 m/s
- speed of sound (300 K, 7107.1 kPa): 766.96 ± 0.35 m/s
- speed of sound (300 K, 8107.8 kPa): 773.21 ± 0.35 m/s
- speed of sound (300 K, 9108.4 kPa): 779.34 ± 0.35 m/s
- speed of sound (300 K, 10110 kPa): 785.37 ± 0.35 m/s
- speed of sound (300 K, 12612 kPa): 800.06 ± 0.36 m/s
- speed of sound (300 K, 15114 kPa): 814.23 ± 0.37 m/s
- speed of sound (300 K, 17616 kPa): 827.91 ± 0.37 m/s
- speed of sound (300 K, 20117 kPa): 841.15 ± 0.38 m/s
- speed of sound (300 K, 25121 kPa): 866.44 ± 0.39 m/s
- speed of sound (300 K, 30125 kPa): 890.34 ± 0.4 m/s
- speed of sound (300 K, 35129 kPa): 913.06 ± 0.41 m/s
- speed of sound (300 K, 40132 kPa): 934.74 ± 0.42 m/s
- speed of sound (300 K, 45136 kPa): 955.48 ± 0.43 m/s
- speed of sound (300 K, 50139 kPa): 975.38 ± 0.44 m/s
- speed of sound (300 K, 60146 kPa): 1013.1 ± 0.46 m/s
- speed of sound (300 K, 70153 kPa): 1048.3 ± 0.47 m/s
- speed of sound (300 K, 80160 kPa): 1081.4 ± 0.49 m/s
- speed of sound (300 K, 90167 kPa): 1112.7 ± 0.5 m/s
- speed of sound (300 K, 100174 kPa): 1142.5 ± 0.52 m/s
- speed of sound (319.99 K, 2104.9 kPa): 660.37 ± 0.3 m/s
- speed of sound (319.99 K, 3105.5 kPa): 668.24 ± 0.31 m/s
- speed of sound (319.99 K, 4106.3 kPa): 675.92 ± 0.31 m/s
- speed of sound (319.99 K, 5107.7 kPa): 683.41 ± 0.31 m/s
- speed of sound (319.99 K, 6108.6 kPa): 690.74 ± 0.32 m/s
- speed of sound (319.99 K, 7109.3 kPa): 697.91 ± 0.32 m/s
- speed of sound (319.99 K, 8110 kPa): 704.93 ± 0.32 m/s
- speed of sound (320 K, 9111.2 kPa): 711.77 ± 0.33 m/s
- speed of sound (320 K, 10112 kPa): 718.52 ± 0.33 m/s
- speed of sound (320 K, 12614 kPa): 734.86 ± 0.34 m/s
- speed of sound (320 K, 15115 kPa): 750.5 ± 0.34 m/s
- speed of sound (320 K, 17617 kPa): 765.53 ± 0.35 m/s
- speed of sound (320 K, 20119 kPa): 779.98 ± 0.35 m/s
- speed of sound (320 K, 25123 kPa): 807.44 ± 0.36 m/s
- speed of sound (320 K, 30126 kPa): 833.19 ± 0.38 m/s
- speed of sound (320 K, 35130 kPa): 857.51 ± 0.39 m/s
- speed of sound (320 K, 40134 kPa): 880.59 ± 0.4 m/s
- speed of sound (320 K, 45137 kPa): 902.59 ± 0.41 m/s
- speed of sound (320 K, 50141 kPa): 923.63 ± 0.42 m/s
